{"source": "paper PMC6934184", "about": "“Selective DNA-PKcs inhibition extends the therapeutic index of localized radiotherapy and chemotherapy” (The Journal of Clinical Investigation, 2019)", "biological_target": "T1, EGFR (ErbB1) d746-750 (Homo sapiens, UniProt P00533, DEL746-750)", "T1 construct": "purchased Thermo Fisher Scientific (Life Technologies) SelectScreen", "T1 sequence (P00533 with tags, fused parts or gaps DEL746-750 limits assumed)": "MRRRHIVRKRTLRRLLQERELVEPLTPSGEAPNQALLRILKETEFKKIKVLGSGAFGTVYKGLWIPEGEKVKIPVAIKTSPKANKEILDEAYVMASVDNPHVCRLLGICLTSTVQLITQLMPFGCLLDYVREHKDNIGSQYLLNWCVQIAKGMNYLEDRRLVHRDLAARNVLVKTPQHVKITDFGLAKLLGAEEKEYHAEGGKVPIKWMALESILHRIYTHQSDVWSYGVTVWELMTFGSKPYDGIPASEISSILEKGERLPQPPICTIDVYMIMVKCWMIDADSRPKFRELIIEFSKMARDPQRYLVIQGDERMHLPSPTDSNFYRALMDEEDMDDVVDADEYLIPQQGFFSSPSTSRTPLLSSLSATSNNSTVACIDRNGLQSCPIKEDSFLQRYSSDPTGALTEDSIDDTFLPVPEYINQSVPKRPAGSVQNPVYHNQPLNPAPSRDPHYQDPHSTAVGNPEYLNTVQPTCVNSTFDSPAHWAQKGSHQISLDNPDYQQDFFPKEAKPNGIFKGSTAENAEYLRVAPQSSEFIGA", "assay": "SelectScreen LanthaScreen", "type": "binding", "conditions": "1 µM", "procedure,_shortened": "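NU5455 was profiled across the SelectScreen Broad panel of kinase activity and binding assays. Z'LYTE reactions such as CSF1R ran at apparent Km ATP, while the Adapta CAMK1 assay used ATP listed as 10. Values are given as percent.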"}
{"molecule": "CN(C(=O)CN1CCOCC1)c1ccc2sc3c(-c4cccc5c(=O)cc(N6CC7CCC(C6)O7)oc45)cccc3c2c1", "note": "[NU5455]", "values": [{"measurement": "% displacement", "value": 5.8, "unit": "%"}]}
